Results on 8 compounds are retold here after PubChem BioAssay (NCI).

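Five concentrations, 48 hours, 96-well plates. GI50 marks 50% less growth. The concentration for full growth arrest is given as TGI.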

Among the test systems are COLO 205 colon; MOLT-4 leukemia; M14 melanoma; SK-MEL-5 melanoma; PC-3 prostate; SK-MEL-28 melanoma; NCI-H226 lung; A549 NSCLC; HS 578T breast; OVCAR-8 ovarian.
Common to all, as to test: NCI anticancer screen, dose series, 48 h

Turning to `N#Cc1ccccc1C#C/C=C\C#Cc1cnccn1`, the GI50 in the assay with COLO 205 colon is 19.7 µM; in the assay with MOLT-4 leukemia, > 24.3 µM; with M14 melanoma it was 5.78 µM; with SK-MEL-5 melanoma, 17 µM; in the assay on PC-3 prostate it was 30.9 µM; in the assay with SK-MEL-28 melanoma, 35.2 µM. In addition, the GI50 in the assay on NCI-H226 lung is 26.6 µM; with A549 NSCLC, 29.8 µM; with HS 578T breast, 27.5 µM; with OVCAR-8 ovarian, 33.9 µM. Besides, the TGI in the assay with COLO 205 colon is > 57.5 µM; in the assay with MOLT-4 leukemia, > 100 µM; in the assay with M14 melanoma it was 13.8 µM; with SK-MEL-5 melanoma, 45.4 µM; in the assay on PC-3 prostate, > 100 µM; in the assay on SK-MEL-28 melanoma it was > 100 µM. Also, the TGI with NCI-H226 lung is > 83.1 µM; in the assay on A549 NSCLC, > 95 µM; with HS 578T breast it was > 93.1 µM; in the assay on OVCAR-8 ovarian, 98.4 µM.
On to `N#Cc1c(-c2ccc(Cl)cc2)n([O-])c2ccccc2[n+]1=O`, for which the GI50 is 23 µM in the assay with COLO 205 colon; 2.31 µM in the assay with MOLT-4 leukemia; 15.9 µM in the assay on SK-MEL-5 melanoma; 3.26 µM in the assay with PC-3 prostate; 44.8 µM in the assay with SK-MEL-28 melanoma; 18.1 µM in the assay with NCI-H226 lung. Besides, the GI50 is 22.2 µM in the assay on A549 NSCLC, 24.6 µM with HS 578T breast and 9.68 µM in the assay with OVCAR-8 ovarian. Also, the TGI with COLO 205 colon is 54.4 µM; in the assay with MOLT-4 leukemia, 4.77 µM; in the assay on SK-MEL-5 melanoma, 31.7 µM; in the assay on PC-3 prostate, 13 µM; in the assay with SK-MEL-28 melanoma, > 100 µM; with NCI-H226 lung it was 46.7 µM. The TGI in the assay with A549 NSCLC turned out to be 55.4 µM; in the assay on HS 578T breast, 53.8 µM; in the assay with OVCAR-8 ovarian, 39 µM.
As for `Cc1cc(N2CCOCC2)nc(N(CCNc2ccnc3cc(Cl)ccc23)Cc2cccs2)n1`, the GI50 was 1.62 µM in the assay with COLO 205 colon; 2.58 µM in the assay on MOLT-4 leukemia; 1.79 µM in the assay on M14 melanoma; 1.59 µM in the assay with SK-MEL-5 melanoma; 1.8 µM in the assay with PC-3 prostate; 1.76 µM in the assay with SK-MEL-28 melanoma. The GI50 in the assay on A549 NSCLC was 3.08 µM; with HS 578T breast, 2.24 µM; with OVCAR-8 ovarian it was 1.96 µM. In addition, the TGI worked out at 3.25 µM in the assay on COLO 205 colon; 5.93 µM in the assay with MOLT-4 leukemia; 3.41 µM in the assay with M14 melanoma; 2.96 µM in the assay on SK-MEL-5 melanoma; 4.84 µM in the assay with PC-3 prostate; 3.7 µM with SK-MEL-28 melanoma. The TGI in the assay with A549 NSCLC was found to be 12 µM; in the assay with HS 578T breast, 5.45 µM; in the assay with OVCAR-8 ovarian, 4.06 µM.
`COc1ccc(/C=C2\CN(Cc3cn(CCCNc4ccnc5cc(Cl)ccc45)nn3)C/C(=C\c3ccc(OC)cc3)C2=O)cc1`: the GI50 in the assay with COLO 205 colon was 12.2 µM; with MOLT-4 leukemia, 2.55 µM; in the assay with M14 melanoma it was 4.15 µM; in the assay with SK-MEL-5 melanoma, 10.5 µM; in the assay with PC-3 prostate it was 2.9 µM; with SK-MEL-28 melanoma it was 14 µM. Besides, the GI50 is 25.5 µM with NCI-H226 lung, 5.07 µM in the assay with A549 NSCLC, 6.27 µM in the assay on HS 578T breast and 2.06 µM in the assay with OVCAR-8 ovarian. For the same compound, the TGI with COLO 205 colon worked out at 26.8 µM; in the assay with MOLT-4 leukemia, 9.4 µM; with M14 melanoma, 16.2 µM; with SK-MEL-5 melanoma, 22.3 µM; in the assay with PC-3 prostate, 17 µM; in the assay on SK-MEL-28 melanoma it was 28 µM. Also, the TGI in the assay on NCI-H226 lung is > 100 µM; in the assay on A549 NSCLC it was 19.5 µM; with HS 578T breast it was 29.7 µM; with OVCAR-8 ovarian, 5.64 µM.
With `COc1ccc(N2CCN(CC(=O)N3CCN(c4nnc(-c5ccc(Cl)cc5)c(-c5ccc(Cl)cc5)n4)CC3)CC2)cc1`, the GI50 is 6.6 µM in the assay with COLO 205 colon; 3.1 µM in the assay with MOLT-4 leukemia; 12.7 µM with M14 melanoma; 5.52 µM in the assay on SK-MEL-5 melanoma; 6.56 µM in the assay with PC-3 prostate; 96.8 µM in the assay with SK-MEL-28 melanoma. Further, the GI50 with NCI-H226 lung was > 100 µM; in the assay on A549 NSCLC, 11.8 µM; in the assay with HS 578T breast, > 100 µM; in the assay on OVCAR-8 ovarian, 22.1 µM. The TGI in the assay with COLO 205 colon was > 100 µM; in the assay with MOLT-4 leukemia, > 100 µM; in the assay on M14 melanoma it was > 100 µM; in the assay on SK-MEL-5 melanoma it was 52.4 µM; in the assay on PC-3 prostate, > 100 µM; in the assay on SK-MEL-28 melanoma, > 100 µM. Moreover, the TGI in the assay with NCI-H226 lung, in the assay with A549 NSCLC, in the assay on HS 578T breast and in the assay with OVCAR-8 ovarian was > 100 µM each time.
With `Cn1c(N)c(N=Nc2ccc(S(N)(=O)=O)cc2)c(=O)n(C)c1=O`, the TGI in the assay on COLO 205 colon, in the assay on MOLT-4 leukemia, in the assay with M14 melanoma, with SK-MEL-5 melanoma, with PC-3 prostate and in the assay on SK-MEL-28 melanoma was > 100 µM throughout. Further, the TGI with NCI-H226 lung was > 100 µM; with A549 NSCLC it was > 100 µM; in the assay with HS 578T breast, 99.1 µM; in the assay with OVCAR-8 ovarian, > 100 µM.
Turning to `CCOC(=O)c1ccccc1NC(c1ccccc1)c1ccc2cccnc2c1O` (configuration not stated), the GI50 was 3.33 µM in the assay on COLO 205 colon; 2.54 µM in the assay with MOLT-4 leukemia; 2.04 µM in the assay with SK-MEL-5 melanoma; 5.13 µM in the assay on PC-3 prostate; 3.19 µM with SK-MEL-28 melanoma; 2.69 µM with NCI-H226 lung. Besides, the GI50 with A549 NSCLC is 3.3 µM; in the assay on HS 578T breast, 7.53 µM; in the assay with OVCAR-8 ovarian it was 3.31 µM. The TGI in the assay on COLO 205 colon was 24.1 µM; in the assay with MOLT-4 leukemia, > 100 µM; with SK-MEL-5 melanoma it was 6.74 µM; in the assay with PC-3 prostate, > 100 µM; in the assay on SK-MEL-28 melanoma it was > 100 µM; in the assay with NCI-H226 lung it was 13.9 µM. Besides, the TGI in the assay on A549 NSCLC was > 100 µM; in the assay with HS 578T breast it was > 100 µM; in the assay with OVCAR-8 ovarian, 52.2 µM.
For `CNCc1ccc(C)c(NC(=O)c2ccc(Nc3nc(-c4ccccc4)c4ccccc4n3)cc2)c1`, the GI50 in the assay with COLO 205 colon was 1.84 µM; in the assay with MOLT-4 leukemia, 2.1 µM; in the assay with M14 melanoma, 1.83 µM; with SK-MEL-5 melanoma, 1.71 µM; in the assay on PC-3 prostate, 1.92 µM; with NCI-H226 lung, 1.98 µM. Moreover, the GI50 is 1.78 µM with A549 NSCLC, 1.76 µM in the assay with HS 578T breast and 1.85 µM with OVCAR-8 ovarian. The TGI with COLO 205 colon amounted to 3.57 µM; with MOLT-4 leukemia, 4.76 µM; in the assay with M14 melanoma, 3.4 µM; in the assay on SK-MEL-5 melanoma it was 3.12 µM; in the assay with PC-3 prostate, 4.15 µM; with NCI-H226 lung, 4.9 µM. Further, the TGI in the assay with A549 NSCLC amounted to 3.4 µM; with HS 578T breast, 4.17 µM; in the assay with OVCAR-8 ovarian it was 3.93 µM.
